Experimental data: ChEMBL document CHEMBL4609995, “Rational design, synthesis and biological profiling of new KDM4C inhibitors” (Bioorg Med Chem, 2020); call rule not given here

Experiments:
[1] = biological target: T1, Lysine-specific demethylase 4C (Homo sapiens, UniProt Q9H3R0); experiment: Inhibition of KDM4C (unknown origin) using methylated H3 peptide as substrate by chemiluminescence assay
T1 sequence (Q9H3R0 whole entry): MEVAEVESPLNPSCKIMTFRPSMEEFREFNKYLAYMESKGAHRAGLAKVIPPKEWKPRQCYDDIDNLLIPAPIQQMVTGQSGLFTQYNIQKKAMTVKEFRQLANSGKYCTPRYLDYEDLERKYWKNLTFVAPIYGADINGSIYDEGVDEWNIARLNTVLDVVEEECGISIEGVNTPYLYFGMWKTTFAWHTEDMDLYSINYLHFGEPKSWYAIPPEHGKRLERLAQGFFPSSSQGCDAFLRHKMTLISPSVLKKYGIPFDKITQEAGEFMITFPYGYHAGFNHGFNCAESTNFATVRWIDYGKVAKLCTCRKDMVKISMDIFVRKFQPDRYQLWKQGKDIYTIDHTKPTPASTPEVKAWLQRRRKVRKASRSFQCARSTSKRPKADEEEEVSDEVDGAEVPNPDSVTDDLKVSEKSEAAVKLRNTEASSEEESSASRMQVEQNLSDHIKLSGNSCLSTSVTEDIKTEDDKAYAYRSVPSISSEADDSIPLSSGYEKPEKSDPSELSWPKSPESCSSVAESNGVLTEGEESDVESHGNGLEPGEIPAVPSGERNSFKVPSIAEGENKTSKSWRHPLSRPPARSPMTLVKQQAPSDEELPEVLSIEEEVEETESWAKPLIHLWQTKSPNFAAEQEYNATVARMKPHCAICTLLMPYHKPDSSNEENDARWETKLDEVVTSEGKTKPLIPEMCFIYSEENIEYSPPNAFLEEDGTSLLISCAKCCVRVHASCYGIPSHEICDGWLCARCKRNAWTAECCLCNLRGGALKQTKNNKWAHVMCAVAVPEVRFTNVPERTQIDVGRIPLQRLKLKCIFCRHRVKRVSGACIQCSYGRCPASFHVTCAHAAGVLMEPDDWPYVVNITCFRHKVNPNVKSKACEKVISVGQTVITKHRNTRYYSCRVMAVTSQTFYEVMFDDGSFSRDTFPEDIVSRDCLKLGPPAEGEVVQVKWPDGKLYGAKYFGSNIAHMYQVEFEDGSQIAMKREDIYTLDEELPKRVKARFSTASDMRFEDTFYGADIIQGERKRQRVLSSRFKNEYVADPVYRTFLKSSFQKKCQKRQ

[2] = Substrate activity at P-gp in MDCK2-MDR1 cells at 10 uM incubated for 60 mins in presence or absence of 2 uM P-gp inhibitor elacridar by LC-MS/MS analysis; type: ADME, cell-based, Canis lupus familiaris; conditions: dog, mdck-mdr1, 1 h
[3] = system: HepG2; experiment: Antiproliferative activity against human HepG2 cells assessed as reduction in cell growth measured after 24 hrs by MTS assay; type: functional, cell-based; conditions: HepG2, 24 h
[4] = system: A549; experiment: Antiproliferative activity against human A549 cells assessed as reduction in cell growth measured after 72 hrs by Alamar blue assay; type: functional, cell-based; conditions: A549, 72 h
[5] = system: P-gp; experiment: Permeability across apical to basolateral side in MDCK2-MDR1 cells at 10 uM incubated for 60 mins in presence 2 uM P-gp inhibitor elacridar by LC-MS/MS analysis; type: ADME, cell-based, Canis lupus familiaris; conditions: dog, MDCK-MDR1, with elacridar 2 uM; read-out: permeability
[6] = Intrinsic clearance in mouse liver microsomes assessed per mg protein at 1 uM measured up to 60 mins in presence or absence of NADPH by LC-MS/MS analysis; type: ADME, Microsome; conditions: for microsomal CLint at 1 µM: liver microsomes, read-out: CLH
[7] = system: P-gp; experiment: Efflux ratio of permeability from basolateral to apical over apical to basolateral side in MDCK2-MDR1 cells MDCK2-MDR1 cells at 10 uM incubated for 60 mins in presence 2 uM P-gp inhibitor elacridar by LC-MS/MS analysis; type: ADME, cell-based, Canis lupus familiaris; conditions: dog, MDCK-MDR1, with elacridar 2 uM
[8] = biological target: T2, Lysine-specific demethylase 4C (Homo sapiens) (UniProt Q9H3R0); experiment: Inhibition of KDM4C (unknown origin) at 10 uM using methylated H3 peptide as substrate by chemiluminescence assay relative to control
T2 sequence (whole entry): T1 sequence (Q9H3R0 whole entry)

[9] = Electrochemical behavior of the compound assessed as reduction in redox potential; type: physicochemical
[10] = biological target: T3, Lysine-specific demethylase 4A (Homo sapiens, UniProt O75164); experiment: Inhibition of KDM4A (unknown origin)
T3 sequence (O75164 whole entry): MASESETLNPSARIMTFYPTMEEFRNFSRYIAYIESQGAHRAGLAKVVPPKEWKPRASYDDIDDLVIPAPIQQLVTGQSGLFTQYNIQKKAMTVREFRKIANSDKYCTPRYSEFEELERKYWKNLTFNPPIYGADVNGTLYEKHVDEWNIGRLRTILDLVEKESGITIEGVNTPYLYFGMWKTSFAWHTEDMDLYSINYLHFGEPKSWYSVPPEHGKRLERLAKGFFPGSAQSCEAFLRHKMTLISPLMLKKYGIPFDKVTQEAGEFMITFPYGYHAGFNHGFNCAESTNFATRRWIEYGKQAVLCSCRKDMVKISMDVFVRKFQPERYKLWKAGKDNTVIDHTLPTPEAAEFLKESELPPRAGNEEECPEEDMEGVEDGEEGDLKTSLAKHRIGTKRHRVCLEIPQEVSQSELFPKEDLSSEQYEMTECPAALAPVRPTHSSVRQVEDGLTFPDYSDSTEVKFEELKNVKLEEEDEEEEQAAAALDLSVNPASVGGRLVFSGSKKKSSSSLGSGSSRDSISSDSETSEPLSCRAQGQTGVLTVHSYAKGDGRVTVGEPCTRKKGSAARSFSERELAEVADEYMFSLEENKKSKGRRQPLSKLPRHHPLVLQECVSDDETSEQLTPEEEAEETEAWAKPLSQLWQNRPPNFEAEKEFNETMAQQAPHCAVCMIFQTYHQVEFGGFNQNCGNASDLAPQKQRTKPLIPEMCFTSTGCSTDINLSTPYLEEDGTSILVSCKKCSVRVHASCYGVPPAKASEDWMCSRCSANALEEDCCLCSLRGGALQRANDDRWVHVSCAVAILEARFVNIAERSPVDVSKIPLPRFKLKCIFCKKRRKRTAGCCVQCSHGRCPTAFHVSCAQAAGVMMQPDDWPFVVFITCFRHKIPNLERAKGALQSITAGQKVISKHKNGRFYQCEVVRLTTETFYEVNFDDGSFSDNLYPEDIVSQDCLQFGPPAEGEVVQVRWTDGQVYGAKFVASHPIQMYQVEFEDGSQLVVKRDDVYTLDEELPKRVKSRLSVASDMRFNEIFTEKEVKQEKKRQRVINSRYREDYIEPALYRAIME

[11] = biological target: T1, Lysine-specific demethylase 4C; experiment: Inhibition of KDM4C (unknown origin)
[12] = species: Homo sapiens; experiment: Selectivity ratio, ratio of IC50 for KDM4A (unknown origin) to IC50 for KDM4C (unknown origin)

SMILES | IC50 [1] | Activity [2] | IC50 [3] [nM] | IC50 [4] [nM] | Papp A→B at 1 h, 10 µM [5] [×10⁻⁶ cm/s] | CLint ([6]; microsomes, 1 h, 1 µM) [µL/min/mg] | efflux ratio at 1 h, 10 µM [7] | inhibition [8] [%] | IC50 ([1]; read-out: IC50) [nM] | microsomal CLint at 1 µM [6] [µL/min/mg] | Activity [9] | IC50 [10] [nM] | IC50 [11] [nM] | Ratio IC50 [12]
Cn1nc(-c2ccn(C)c(=O)c2)nc2c(=O)n(C)c(=O)nc1-2 | Not Active | Active | 4500 | 8800 | 1.1 | 71.8 | < 2 | – | – | – | – | – | – | –
COc1ccc(/C=N/N(C)c2cc(=O)n(C)c(=O)[nH]2)cc1 | – | – | – | – | – | – | – | 40 to 70 | – | – | – | – | – | –
Cn1nc(-c2ccc(O)cc2)nc2c(=O)n(C)c(=O)nc1-2 | – | Not Active | 1100 | 5800 | 13.2 | – | < 2 | – | 242 | < 12.5 | – | – | – | –
Cn1nc(-c2ccncc2)nc2c(=O)n(C)c(=O)nc1-2 | – | Not Active | 1800 | 4300 | 13.4 | – | < 2 | – | 19 | 11.6 | – | – | – | –
Cn1c(=O)nc2[nH]nc(-c3ccccc3)nc-2c1=O | – | Not Active | > 25000 | > 30000 | 35.5 | – | < 2 | – | 7630 | < 12.5 | – | – | – | –
COC(=O)C1(c2ccc(-c3nc4c(=O)n(C)c(=O)nc-4n(C)n3)cc2)CC1 | Not Active | Not Active | 1200 | 1300 | 24.9 | – | < 2 | – | – | < 12.5 | – | – | – | –
Cn1c(=O)[nH]c2ccc(-c3ccccc3)cc2c1=O | – | Not Active | > 25000 | > 30000 | 27.3 | – | < 2 | – | > 10000 | 229 | – | – | – | –
Cn1nc(-c2ccc(C#N)cc2)nc2c(=O)n(C)c(=O)nc1-2 | – | Not Active | 800 | 1900 | 26.8 | – | < 2 | – | 11 | < 12.5 | – | – | – | –
CN(/N=C/c1ccccc1)c1cc(=O)n(C)c(=O)[nH]1 | – | – | – | – | – | – | – | > 70 | – | – | Active | – | – | –
CN(/N=C/c1ccc(F)cc1)c1cc(=O)n(C)c(=O)[nH]1 | – | – | – | – | – | – | – | > 70 | – | – | – | – | – | –
Cn1nc(-c2ccc(S(N)(=O)=O)cc2)nc2c(=O)n(C)c(=O)nc1-2 | – | Not Active | 5600 | > 30000 | 0.8 | – | < 2 | – | 42 | < 12.5 | – | – | – | –
Cn1nc(-c2ccccc2)nc2n(C)c(=O)nc1-2 | – | Not Active | > 25000 | > 30000 | 40.6 | – | < 2 | – | 12700 | 13.1 | – | – | – | –
CN(C)c1ccccc1-c1nc2c(=O)n(C)c(=O)nc-2n(C)n1 | – | Not Active | 2100 | 5700 | 18 | – | < 2 | – | 16 | < 12.5 | – | – | – | –
COc1ccc(-c2nc3c(=O)n(C)c(=O)nc-3n(C)n2)cc1 | – | Not Active | 800 | 1100 | 34.5 | – | < 2 | – | 8 | < 12.5 | – | – | – | –
CN(/N=C/c1ccc(O)cc1)c1cc(=O)n(C)c(=O)[nH]1 | – | – | – | – | – | – | – | 40 to 70 | – | – | – | – | – | –
Cn1ncnc2c(=O)n(C)c(=O)nc1-2 | – | Not Active | 4500 | 22 | 16 | – | < 2 | – | 541 | < 12.5 | – | 2500 | 500 | 5
Cn1nc(-c2ccc(F)cc2)nc2c(=O)n(C)c(=O)nc1-2 | – | Not Active | 820 | 1600 | 30.6 | – | < 2 | – | 81 | < 12.5 | – | – | – | –
Cn1nc(-c2ccccc2)nc2c(=O)n(C)c(=O)nc1-2 | – | Not Active | 870 | 1100 | 34.7 | – | < 2 | – | 130 | < 12.5 | – | – | – | –
Cn1nc(Cc2ccccc2)nc2c(=O)n(C)c(=O)nc1-2 | – | Not Active | 5100 | > 30000 | 25.3 | – | < 2 | – | 29 | < 12.5 | – | – | – | –
CN(C)c1ccccc1/C=N/N(C)c1cc(=O)n(C)c(=O)[nH]1 | – | – | – | – | – | – | – | 40 to 70 | – | – | – | – | – | –
